Assay results as given in publication PMC10333884, “Large‐scale phosphomimetic screening identifies phospho‐modulated motif‐based protein interactions” (Molecular Systems Biology, 2023).
Non-standard residues stand in square brackets, D forms with d. Residues, ends and D or L forms follow the SMILES beside them. pT = C[C@@H](OP(=O)(O)O)[C@H](N)C(=O)O; pS = N[C@@H](COP(=O)(O)O)C(=O)O

What was measured:
[1] = test system: bait protein domains; assay: Phosphomimetic ProP-PD selection against the PM_HD2 library (NGS counts, confidence level, PES), any bait; format: binding, human; design: Confidence / Max confidence: scale not given here; details: bait ABL1_SH3__P00519_60_121; for Confidence / Promiscuity / Specificity: selection results by peptide; for Has possible phosphoregulated psite? (PES +2/-2, p<0.01) / Max confidence: hit given as wt version
Protocol: Selections using the PM_HD2 phage library were performed as described previously with minor modification to the original protocol. The corresponding tag protein (either GST or MBP) was first used during negative selections. Selections were run for 4 days. • Bait and tag proteins (10–15 μg in 100 μl PBS) were immobilised in 96‐well MaxiSorb plate (NUNC) o.n. at 4°C. • Escherichia coli OmniMax bacteria were grown in 2YT medium supplemented with tetracycline (100 μg/ml) at 37°C and 200 rpm. • Plates with immobilised bait/tag proteins were blocked with 0.5% BSA in PBS for 1 h at 4°C. • Phage library (10 μl/well) was prepared by diluting 10× with PBS and adding one‐fourth of the volume of PEG/NaCl. For phage precipitation, prepared library was incubated for 10 min on ice followed by centrifugation for 10 min at 10,000 × g at 4°C. Phages were resuspended in 0.5% BSA, 0.05% Tween in PBS. • Plates with tag proteins were washed 4× with 0.05% Tween in PBS, and naïve phage library was added to each well (100 μl/well) and the plates incubated for 1 h at 4°C. • Plates with bait protein were washed 4× with 0.05% Tween in PBS, and nonbound phages were transferred from the tag protein plate and the plates incubated for 1 h at 4°C. • Plates were again washed 5× with 0.05% Tween in PBS, and bound phages were eluted with log‐phase OmniMax bacteria (100 μl/well) by incubating for 30 min at 37°C at 200 rpm. • M13K07 helper phage (10^12 cfu/ml) was added to each well and the plates incubated for 45 min at 37°C at 200 rpm. • Amplification took place o.n. by adding the eluted phages to 1.1 ml 2YT media supplemented with kanamycin (25 μg/ml), carbenicillin (50 μg/ml) and 0.3 μM IPTG in a 96‐deep‐well plate and incubating o.n. at 37°C at 200 rpm. • Bacteria were pelleted by centrifugation for 15 min at 1,700 × g at 4°C. The phage supernatant was pH‐adjusted by the addition of 10× PBS and remaining bacteria heat‐inactivated by incubating for 10 min at 60°C. Selections were repeated as described from (5).
Based on the results from phage pool ELISAs, samples from selection Day 3 and 4 were selected for NGS, as described previously (Benz et al, [2022]). • Peptide coding regions were amplified and dual‐barcoded by PCR. 5 μl of the enriched phage pools (50 μl reactions) and a high‐fidelity phusion polymerase (Roche) were used for the PCR reaction. Amplification was confirmed by running the PCR product on 2% agarose gel with a 50 bp ladder. • PCR products (25 μl) were purified with 25 μl of Mag‐bind Total Pure NGS beads and normalised in the same step by taking 10 μl of each reaction after resuspension (Qiagen Elution buffer: 10 mM Tris‐Cl and 0.1 mM EDTA (pH 8.5)) from the beads. • The samples were cleaned up with a PCR purification kit (Qiagen) and subsequently run on a 2% agarose gel, and bands of the correct size (ca. 200 bp) were purified with the QIAquick Gel extraction Kit (Qiagen). From the columns, samples were eluted with 30 μl TE (10 mM Tris–HCl, 1 mM EDTA. pH 7.5) buffer and quantified with Quant‐iT PicoGreen dsDNA Assay Kit. • Samples were sequenced on MiSeq (MSC 2.5.0.5/RTA 1.18.54) with a 151 nt (Read1) setup using “Version3” chemistry. The Bcl to FastQ conversion was performed using bcl2fastq_v2.20.0.422 from the CASAVA software suite.
The processing of sequencing data was performed as described in Ali et al ([2020]). In brief: Pooled results from ~500 selection experiments were demultiplexed by identifying unique combinations of 5′ and 3′ barcodes, sequences with an average quality score of 20 or more were conserved and their adaptors were trimmed, and DNA sequences translated using in‐house custom Python scripts. A table for each experiment was built containing peptide sequences associated with their sequencing counts. […]

[2] = target: T1, TSG101 UEV (Homo sapiens, UniProt Q99816); assay: FP displacement assay, TSG101 UEV; format: binding; details: for IC50: Fig 4B, TSG101 UEV, technical triplicates, read-out: IC50 values of displacement curves, with SEM; for Kd: read-out: KD values ± SEM
T1 construct: TSG101_UEV__Q99816_1_145; made in house; host or cells: Escherichia coli BL21-Gold(DE3)
T1 sequence (Q99816 1-145): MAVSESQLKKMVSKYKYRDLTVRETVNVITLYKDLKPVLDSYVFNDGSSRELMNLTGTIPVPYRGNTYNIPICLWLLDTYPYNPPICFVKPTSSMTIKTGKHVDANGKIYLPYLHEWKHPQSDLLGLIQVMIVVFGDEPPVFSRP
Protocol: (§1) FP experiments were performed as described previously (Kliche et al, [2021]). Shortly, in order to monitor the binding event, FITC‐labelled peptides were used (excitation 495 nm, emission: 535 nm) and the FP signal was recorded in mP on a SpectraMax iD5 Multi‐Mode Microplate Reader (Molecular Devices) by measuring the emitted light in two angels. The measurements were performed at room temperature and prepared in nonbinding black half area 96‐well microplates (Corning®; 50 μl/well). For measuring direct binding, that is saturation curves, a 1:1 dilution series of protein domain (25 μl/well) was generated in 50 mM sodium phosphate buffer pH 7.4 and the measurement performed with 5 nM FITC‐labelled peptide (25 μl/well). The buffer‐corrected values were subsequently plotted with PRISM and fitted to the quadratic equation (Gianni et al, [2005]).
(§2) The 1:1 dilution series in this experiment was performed with the unlabelled peptide in 50 mM sodium phosphate buffer pH 7.4, so that each well‐contained unlabelled peptide (25 μl) at a certain concentration and pre‐formed complex (25 μl). The KD values of this indirectly monitored binding event were calculated as described previously (Nikolovska‐Coleska et al, [2004]). All measurements were at least in technical triplicates as well as biological duplicates when indicated. An amplitude shift between repeat measurements in the displacement experiments was occasionally observed due to variations in the protein preparations. If that was the case, the “active” protein concentration was back‐calculated according to the quadratic equation from the saturation curves performed in parallel. By comparing the active protein concentrations in the complex between different protein preparations, the amplitude was normalised.

[3] = target: T2, KPNA4 ARM Major (Homo sapiens, UniProt O00629); assay: FP displacement assay, KPNA4 ARM major pocket; format: binding; details: major pocket probe FITC-MYC 5 nM, 50 mM sodium phosphate pH 7.4, room temperature, at least three technical replicates, read-out: KD values ± SEM
T2 construct: 60-487; GST (cleaved yes); made in house; host or cells: Escherichia coli BL21-Gold(DE3)
Protocol: as §1, §2

[4] = target: T3, KPNA4 ARM minor (Homo sapiens, UniProt O00629); assay: FP displacement assay, KPNA4 ARM minor pocket; format: binding; details: minor pocket probe FITC-NCOR2 5 nM, 50 mM sodium phosphate pH 7.4, room temperature, at least three technical replicates, read-out: KD values ± SEM
T3 construct: 60-487; GST (cleaved yes); made in house; host or cells: Escherichia coli BL21-Gold(DE3)
Protocol: as §1, §2

[5] = probe FITC-HIV2_Gag 5 nM, 50 mM sodium phosphate pH 7.4, room temperature, at least three technical replicates

T3 sequence (O00629 60-487): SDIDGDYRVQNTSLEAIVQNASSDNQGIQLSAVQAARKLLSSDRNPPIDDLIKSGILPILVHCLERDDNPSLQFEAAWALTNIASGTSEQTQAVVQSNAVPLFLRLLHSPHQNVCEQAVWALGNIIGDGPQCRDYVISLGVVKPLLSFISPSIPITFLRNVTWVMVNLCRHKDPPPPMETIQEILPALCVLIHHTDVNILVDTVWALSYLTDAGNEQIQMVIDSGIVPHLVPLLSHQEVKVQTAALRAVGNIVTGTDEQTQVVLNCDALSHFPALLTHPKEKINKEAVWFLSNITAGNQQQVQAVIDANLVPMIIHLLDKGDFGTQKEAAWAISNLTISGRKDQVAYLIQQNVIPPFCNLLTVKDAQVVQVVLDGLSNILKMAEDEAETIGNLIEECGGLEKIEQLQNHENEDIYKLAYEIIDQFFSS
T2 sequence (O00629 60-487): as above

Work on DAPPHYPPPSTAAASP [listing 1 of 2 here] yielded a Confidence [1] of 2, a Promiscuity [1] of 3 and a Specificity [1] of 0.7461.

In the case of `CC(=O)N[C@@H](Cc1c[nH]cn1)C(=O)N[C@@H](CO)C(=O)NCC(=O)N[C@@H](CC(N)=O)C(=O)N[C@H](C(=O)N[C@H](C(=O)N1CCC[C@H]1C(=O)N[C@H](C(=O)N[C@@H](C)C(=O)N1CCC[C@H]1C(=O)N1CCC[C@H]1C(=O)N[C@@H](Cc1ccc(O)cc1)C(=O)N[C@@H](CC(C)C)C(=O)N[C@@H](CCC(N)=O)C(=O)N[C@@H](CCC(=O)O)C(=O)N[C@@H](CO)C(N)=O)[C@@H](C)O)[C@@H](C)OP(=O)(O)O)C(C)C` [PIP4P2_17–32 pS] (Ac-HSGNV[pT]PTAPPYLQES-NH2), the IC50 [2] is reported as 34 ± 10 µM and the Kd [2, 5] is reported as 16 ± 3 µM.

With PPFSPPPSPRGEVERG the “Has possible phosphoregulated psite? (PES +2/-2, p<0.01)” value [1] was “yes” and the Max confidence [1] was 3.

For SPPRPPPPPPLLGTVS, the “Has possible phosphoregulated psite? (PES +2/-2, p<0.01)” value [1] was “yes” and the Max confidence [1] was 3.

Compound `CC[C@H](C)[C@H](NC(=O)[C@H](CO)NC(=O)[C@H](CCC(N)=O)NC(C)=O)C(=O)N[C@@H](C)C(=O)N[C@@H](CCCNC(=N)N)C(=O)N[C@@H](CCC(=O)O)C(=O)N1CCC[C@H]1C(=O)N[C@@H](CO)C(=O)N[C@@H](C)C(=O)N1CCC[C@H]1C(=O)N[C@@H](CO)C(=O)N[C@H](C(=O)N1CCC[C@H]1C(=O)N[C@H](C(=O)N1CCC[C@H]1C(=O)N[C@@H](Cc1ccc(O)cc1)C(N)=O)[C@@H](C)O)[C@@H](C)CC` [PDCD6IP711–725 wt] (Ac-QSIAREPSAPSIPTPY-NH2) has an IC50 [2] of 34 ± 10 µM and a Kd [2, 5] of 16 ± 3 µM.

Compound `CSCC[C@H](NC(=O)[C@@H]1CCCN1C(=O)[C@H](CO)NC(=O)[C@H](CC(C)C)NC(=O)[C@@H]1CCCN1C(=O)[C@H](C)NC(=O)[C@@H](NC(=O)[C@@H]1CCCN1C(=O)[C@H](CO)NC(=O)[C@H](CO)NC(=O)[C@H](C)NC(=O)CNC(=O)[C@H](CC(N)=O)NC(=O)[C@H](Cc1ccc(O)cc1)NC(C)=O)[C@@H](C)O)C(=O)N[C@@H](CO)C(=O)N1CCC[C@H]1C(N)=O` [GJA1_269–283 wt] (Ac-YNGASSPTAPLSPMSP-NH2) has a Kd [2, 5] of 232 ± 16 µM.

Compound `CC(=O)N[C@@H](CC(=O)O)C(=O)N[C@H](C(=O)N[C@@H](CCC(=O)O)C(=O)N[C@@H](Cc1c[nH]cn1)C(=O)NCC(=O)NCC(=O)N[C@@H](CCCCN)C(=O)N[C@@H](CCCNC(=N)N)C(=O)N[C@@H](COP(=O)(O)O)C(=O)N[C@@H](CCCNC(=N)N)C(=O)N[C@@H](CC(C)C)C(=O)N[C@H](C(=O)N1CCC[C@H]1C(=O)N[C@H](C(=O)N[C@@H](CO)C(=O)N[C@@H](Cc1ccc(O)cc1)C(N)=O)C(C)C)[C@@H](C)O)C(C)C` [SQSTM1_258–272 pS] (Ac-DVEHGGKR[pS]RLTPVSY-NH2) has a Kd [3] of 50 ± 7 µM and a Kd [4] of 248 ± 3 µM.

DAPPHYPPPSTAAASP [listing 2 of 2 here] was tested, and the “Has possible phosphoregulated psite? (PES +2/-2, p<0.01)” value [1] was “yes” and the Max confidence [1] was 3.

LTYPQYSPPQPRPGVI was tested, and the “Has possible phosphoregulated psite? (PES +2/-2, p<0.01)” value [1] was “yes” and the Max confidence [1] was 4.

Work on DAPPHYPPPSTAAAEP yielded a Confidence [1] of 3, a Promiscuity [1] of 4 and a Specificity [1] of 0.8807.

PATSPPKEPPQLEALQ was tested, and the Confidence [1] was 2, the Promiscuity [1] was 2 and the Specificity [1] was 0.9898.

For “H3COC-QSIAREPS(pS/E)APSIPTPY-NH2 [PDCD6IP711–725 pS, phosphorylated PDCD6IP 711-725 peptide]”, the “KD values ± SEM” value [2, 5] was “n.b”.

Compound PSYSPPDTSPANRSFV has a Confidence [1] of 2, a Promiscuity [1] of 1 and a Specificity [1] of 1.

With PATSPPKTPPQLEALQ [listing 1 of 2 here] the “Has possible phosphoregulated psite? (PES +2/-2, p<0.01)” value [1] was “yes” and the Max confidence [1] was 3.

With `CC(=O)N[C@@H](Cc1c[nH]cn1)C(=O)N[C@@H](CO)C(=O)NCC(=O)N[C@@H](CC(N)=O)C(=O)N[C@H](C(=O)N[C@H](C(=O)N1CCC[C@H]1C(=O)N[C@H](C(=O)N[C@@H](C)C(=O)N1CCC[C@H]1C(=O)N1CCC[C@H]1C(=O)N[C@@H](Cc1ccc(O)cc1)C(=O)N[C@@H](CC(C)C)C(=O)N[C@@H](CCC(N)=O)C(=O)N[C@@H](CCC(=O)O)C(=O)N[C@@H](CO)C(N)=O)[C@@H](C)O)[C@@H](C)O)C(C)C` [PIP4P2_17–32 wt] (Ac-HSGNVTPTAPPYLQES-NH2) the Kd [2, 5] was 14 ± 1 µM.

`CSCC[C@H](NC(=O)[C@@H]1CCCN1C(=O)[C@H](COP(=O)(O)O)NC(=O)[C@H](CC(C)C)NC(=O)[C@@H]1CCCN1C(=O)[C@H](C)NC(=O)[C@@H](NC(=O)[C@@H]1CCCN1C(=O)[C@H](CO)NC(=O)[C@H](CO)NC(=O)[C@H](C)NC(=O)CNC(=O)[C@H](CC(N)=O)NC(=O)[C@H](Cc1ccc(O)cc1)NC(C)=O)[C@@H](C)O)C(=O)N[C@@H](CO)C(=O)N1CCC[C@H]1C(N)=O` [GJA1_269–283 pS] (Ac-YNGASSPTAPL[pS]PMSP-NH2) showed an IC50 [2] of 420 ± 29 µM and a Kd [2, 5] of 209 ± 8 µM.

Compound PATSPPKTPPQLEALQ [listing 2 of 2 here] has a Confidence [1] of 3, a Promiscuity [1] of 3 and a Specificity [1] of 0.9995.
